Laboratory results reported in patent publication US12630523B2, “Isoquinoline derivatives for use as antiviral and antitumour agents” (priority 2021, dated 2026).

Experiments:
HPV16 E7 protein = target: T1, HPV16 E7 protein (Human papillomavirus type 16, UniProt P03129); format: cell-based; details: CaSki cells; for % Dad: adjusted degradation, CHX steady state set to 100% degradation
T1 construct: endogenous in cells; host or cells: CaSki cells (HPV16-positive cervical carcinoma)
Experimental: For intracellular antibody labeling, 0.5×10^6 cells are washed once with 1 ml ice-cold PBS. Cells are centrifuged at 350×g for 5 minutes at 4° C. and then fixed in 1% paraformaldehyde (1 ml/10^6 cells) for 20 minutes at 4° C. Cells are washed with 1 ml ice-cold PBS and centrifuged at 350×g for 5 minutes at 4° C. To permeabilize cells, 100% ice-cold methanol (1 ml/10^6 cells) is added to the cells and incubated for 20 minutes at 4° C. followed by centrifugation at 350×g for 5 minutes at 4° C. Cells are washed with 1 ml ice-cold PBS, centrifuged at 350×g for 5 minutes at 4° C. and resuspended in 0.1% saponin+2% FBS in PBS (ice-cold). Cells are left for 20-30 minutes at room temperature to reduce the background signal and then centrifuged at 350×g for 5 minutes at 4° C. The primary antibody (mAb_HPV16E7-1 (VS13004); concentration 1 μg/μl) is diluted in 0.1% saponin+2% FBS (dilution 0.25 μg/50 μl of incubation buffer per 1×10^6 cells (5 ng/μl)). Cells are incubated with primary antibody for 30 minutes at room temperature, washed with 0.1% saponin+2% FBS and centrifuged at 350×g for 5 minutes at 4° C. The secondary antibody (FITC conjugated goat anti-mouse IgG1-IgM, BD, cat. #555988) is diluted in 0.1% saponin+2% FBS (dilution 1:50). Cells are incubated with secondary antibody for 30 minutes at room temperature, washed once with 0.1% saponin+2% FBS, once with PBS and centrifuged at 350×g for 5 minutes at 4° C.
Cells are resuspended in 700 μl PBS prior to CF analysis with a Beckman Coulter FC 500 MPL, (excitation laser 488 nm). Data analysis is done using the Beckman Coulter software packages MXP for acquisition and CXP for data analysis which includes MFI calculation. Detection of HPV-E7 protein expression is based on morphology back-gating of FL1 histogram (logarithmic scale) with gating for dot plot FS (Forward Scatter) log/SS (Sideward Scatter) log and gating for histograms SS log.
In order to define the level of E7 protein expression and to study the extent of E7 protein steady state level reduction in E7 expressing cells in the presence of various compounds, FC analysis is implemented using the intracellular antibody labeling procedure for monoclonal antibodies to HPV E7. E7 signal intensities are analyzed from the obtained FL1 histograms at logarithmic scale. The FL1 single histogram graph represents the variation in the mean fluorescence intensity (MFI) channel for cells treated with selected compounds compared to cells not incubated with primary antibodies but incubated with secondary, which allows to test for auto-fluorescence, and non-compound treated cells as controls. Non-primary antibody-stained cells are used to set the acquisition parameters to zero. Decrease of the mean fluorescence intensity channel corresponds to a decrease in the expression of HPV16 E7 protein. Degradation of E7 in cells is calculated as percent (%) reduction in MFI(x-Me) using the following formulas: % Drel=(T−C)/T*100; i) relative degradation: % Dad=(T−C)/(T−CHX)*100; ii) adjusted degradation: • Drel=relative degradation, • Dad=adjusted degradation assuming CHX % Drel=100; • T=MFI of non-treated cells; • C=MFI of compound treated cells; • CH=MFI of cycloheximide (CHX) treated cells;
For comparison within one experiment i) the % relative degradation (Drel) is sufficient, whereas for comparison between two or more experiments ii) the adjusted degradation (Dad) is used and CHX steady state is set to a 100% degradation parameter.
1×10^6 freshly seeded CaSki cells (ATCC CRL-7915), are grown in 10 cm diameter cell culture dishes in RPMI1640, 10% FCS medium at 37° C. 5% CO2 overnight and then incubated in the presence of 10 μM Cycloheximide (CHX) 10 μM OC246 or with vehicle alone for four hours at 37° C. 5% CO2. Following this E7 protein is assessed by cytofluorimetric analysis using intracellular HPV16 E7 antibody labeling. […]

[1] = system: patient derived SARS-2 Coronavirus (COVID19); test: Inhibition of Sars-CoV2 replication by RNA qPCR analysis in Vero E6 cells; format: cell-based, SARS-CoV-2; details: 7.5 μM, supernatants 3 days after infection, n3
Experimental: Vero E6 cells were pre-incubated with the compounds at a concentration of 7.5 μM. The cells were infected with a patient derived SARS-2 Coronavirus (COVID19). Cellular supernatants were collected 3 days after infection and centrifuged at 2000 rpm for 5 min to remove detached cells. Viral RNAs were extracted using a MagNA Pure 24 system (Roche, Germany). SARS-CoV-2 RNA genomes were quantified with the TIB MOLBIOL LightMix Assay SARS-CoV-2 RdRP RTqPCR assay kit with RNA Process Control PCR Kit (Roche). The PCR reaction setup was performed using a BRAND LHS laboratory robot to ensure quality. The amplification was performed with a LightCycler 480 II (Roche). Method used in FIG. 10.
SARV-CoV-2 antiviral activity by of VSP034 and VSP035 (n3; number of repeat of the assay at each condition). The results are shown in for DMSO (1), 7.5 μM VSP034 (2) and 7.5 μM VSP035 (3), y axis logarithmic scale. […] (FIG. 9)

T1 sequence (P03129 whole entry): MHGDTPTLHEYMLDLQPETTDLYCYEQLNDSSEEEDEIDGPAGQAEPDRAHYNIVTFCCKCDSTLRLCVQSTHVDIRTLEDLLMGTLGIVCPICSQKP

CN1CCC(CN2C(=O)c3ccccc3[C@@H](C(=O)Nc3cccc(N4CCN(C)CC4)c3)[C@@H]2c2ccc(C(F)(F)F)cc2)CC1 (racemic) [OC974, (3R,4R)- and (3S,4S)-N-[3-(4-methylpiperazin-1-yl)phenyl]-2-[(1-methylpiperidin-4-yl)methyl]-1-oxo-3-[4-(trifluoromethyl)phenyl]-3,4-dihydroisoquinoline-4-carboxamide]
% Dad (HPV16 E7 protein): 68%

Cc1ccc(CN2C(=O)c3ccccc3[C@H](C(=O)Nc3cccc(N4CCN(C)CC4)c3)[C@@H]2c2ccc(C(F)(F)F)cc2)cc1 [OC246, N-[3-(4-methylpiperazin-1-yl)phenyl]-2-[(4-methylphenyl)methyl]-1-oxo-3-[4-(trifluoromethyl)phenyl]-1,2,3,4-tetrahydroisoquinoline-4-carboxamide]
% Drel (relative degradation) (HPV16 E7 protein; 10 μM, four hours): 43.79% | % Dab (adjusted degradation) (HPV16 E7 protein; 10 μM, four hours, CHX set to 100): 55.59% | MFI (mean fluorescence intensity) of E7 signal (HPV16 E7 protein; 10 μM, four hours, vehicle T 8.06): 4.53 | % Dad (HPV16 E7 protein): 56%

CN1CCC(CN2C(=O)c3ccccc3[C@H](C(=O)Nc3cccc(N4CCN(C)CC4)c3)[C@H]2c2ccc(C(F)(F)F)cc2)CC1 [VSP035, (3S,4S)-N-[3-(4-methylpiperazin-1-yl)phenyl]-2-[(1-methylpiperidin-4-yl)methyl]-1-oxo-3-[4-(trifluoromethyl)phenyl]-1,2,3,4-tetrahydroisoquinoline-4-carboxamide]
reduction of virus load as determined by the PCR assay [1]: one order of magnitude
